Test results as given in US9040591B2, “Methods and compositions comprising at least one α3 βA4 nAChR antagonist or pharmaceutically acceptable salt thereof” (AGI Therapeutics Public Limited Company, priority 2003, dated 2015).
Structures can show the parent of a compound that is named as a salt.

Columns and labels:
[1] = Clinical study of transdermal mecamylamine patches in smokers, treatment emergent effects; type: in vivo, human; settings: for Side effect: Constipation: transdermal patches of Example 1, smokers but otherwise healthy subjects
Description: The mecamylamine transdermal formulation is a transdermal patch that contains mecamylamine blended with an acrylic adhesive that is coated onto a printed backing to produce transdermal patches.

[2] = Pharmacokinetics of oral conventional formulation in adults (Young et al. 2001); type: in vivo, human adults; settings: expected
Protocol: Bear et al., Am. J. Physiol., 186, 180-86 (1956). […] Young et al., Clinical Therapeutics, 23(4) (2001). […] The typical dose used for treating hypertensive subjects is about 25 mg/day, and is dosed using conventional formulations.

[3] = system: patients with dominant chronic diarrhea symptoms (functional diarrhea); experiment: Example 3 randomized, double-blind, placebo-controlled forced dose escalation study in Functional Diarrhea; type: in vivo, human; settings: for number of patients showing improvement in stool consistency / percent of patients showing improvement in stool consistency: modified per-protocol population
Description: Eight-two patients (both male and female) meeting ROME II criteria (modified) for Functional Diarrhea were randomized in the study. […] For example, the following table summarizes the number of patients showing “improvement” in stool consistency. Prior to treatment, patients were to be experiencing >50% of the time, a mushy/watery stool consistency in at least 75% of their daily stools. “Improvement” represents a patient experiencing <50% of the time, a mushy/watery stool consistency in at least 75% of daily stools.

[4] = Second clinical trial, treatment emergent effects associated with ganglion blocking activity; type: in vivo, human
Protocol: In a second clinical trial, the frequency of treatment emergent effects typically associated with “ganglion blocking” activity was assessed. The following treatment emergent effects were found: […]

[5] = 2.5 mg dose, conventional formulation, adults; cited from earlier work
[6] = transdermal patches of Example 1, smokers

SMILES: CNC1(C)C2CCC(C2)C1(C)C (stereo not drawn) [Mecamylamine, N-2,3,3-tetramethylbicyclo-[2.2.1]heptan-2-amine]
- Side effect: Application [1, 6]: 25%
- Side effect: Asthenia [1, 6]: 14%
- Side effect: Dizziness [1, 6]: 17%
- Side effect: Headache [1, 6]: 36%
- Side effect: Insomnia [1, 6]: 14%
- Side effect: Nausea [1, 6]: 15%
- Side effect: Rash [1, 6]: 13%
- Side effect: Constipation [1]: 42%
- Side effect: Constipation ([1]; listed as mecamylamine): 42%
- 24 hour plasma concentration level as % of peak plasma concentration [2]: less than 25%
- time for which about 50% of the peak plasma concentration is maintained [2]: about 14 hours
- overall incidence of adverse events versus placebo ([3]; 12-week study): similar
- changes in blood pressure ([3]; 12-week study, FIGS. 1 and 2): no clinically significant changes in blood pressure
- number of patients showing improvement in stool consistency ([3]; Entire Study): 8/18
- percent of patients showing improvement in stool consistency ([3]; Entire Study): 44.4%
- number of patients showing improvement in stool consistency ([3]; Week 4 (2 mg/day)): 8/18
- percent of patients showing improvement in stool consistency ([3]; Week 4 (2 mg/day)): 44.4%
- number of patients showing improvement in stool consistency ([3]; Week 8 (4 mg/day)): 8/18
- percent of patients showing improvement in stool consistency ([3]; Week 8 (4 mg/day)): 44.4%
- number of patients showing improvement in stool consistency ([3]; Week 12 (6 mg/day)): 9/18
- percent of patients showing improvement in stool consistency ([3]; Week 12 (6 mg/day)): 50.0%
- primary and secondary endpoints versus placebo ([3]; intent-to-treat analysis, entire 12 weeks of dose-escalation therapy): failed to show any statistically significant difference from placebo
- stool consistency versus placebo ([3]; intent-to-treat analysis, week 4 (2 mg/day)): improvement in stool consistency
- stool consistency versus placebo ([3]; modified per-protocol population (n=35), entire dose-escalation and each dose treatment phase): significant improvements in stool consistency
- Side effect: Cardiac Disorder [4]: 1.3%
- Side effect: Constipation [4]: 28.9%
- Side effect: Dizziness [4]: 4.0%
- Side effect: Dry Mouth [4]: 3.4%
- Side effect: Eye [4]: 0.7%
- Side effect: Gastrointestinal [4]: 4.36%
- Side effect: Nausea [4]: 5.4%
- Side effect: Urinary Retention [4]: 0.7%

SMILES: CNC1(C)C2CCC(C2)C1(C)C (stereo not drawn) [mecamylamine hydrochloride, N-2,3,3-tetramethylbicyclo[2.2.1]heptan-2-amine hydrochloride]
- maximum plasma concentration (Cmax) [5]: about 7.89 ng/mL
